Reference: patent publication US20220304992A1, “METHODS OF REJUVENATING AGED TISSUE BY INHIBITING 15-HYDROXYPROSTAGLANDIN DEHYDROGENASE (15-PGDH)” (The Board of Trustees of the Leland Stanford Junior …, priority 2019, published 2022)
Entries after “also recorded” stand apart in the source; their conditions may differ.

How the values were obtained:
[1] = Muscle mass, plantar flexion tetanic force and treadmill endurance in aged and young C57BL/6 mice; format: in vivo, mouse; details: young mice, daily i.p., 1 month
From the text: (§1) We performed all experiments and protocols in compliance with the institutional guidelines of Stanford University and Administrative Panel on Laboratory Animal Care (APLAC). Mid (18 mo.) and aged (>24 mo.) mice C57BL/6 were obtained the US National Institute on Aging (NIA) for aged muscle studies, and young (2-4 mo.) wild-type C57BL/6 mice from Jackson Laboratory. Mice were maintained in specific-pathogen free housing on a 12-hour dark/light cycle for study duration.
(§2) Time and distance to exhaustion was performed as previously described (4) for SW-treated mice and their controls (FIG. 3A).
(§3) The peak isometric torque (N·mm) of the ankle plantarflexors was assessed as previously described (8,9). Briefly, the foot of anesthetized mice was placed on a footplate attached to a servomotor (model 300C-LR; Aurora Scientific). Two Pt-Ir electrode needles (Aurora Scientific) were inserted percutaneously were inserted subcutaneously over the tibial nerve, just posterior/posterior-medial to the knee. The ankle joint was secured at a 90° angle. The peak isometric torque was achieved by varying the current delivered to the tibial nerve at a frequency of 200 Hz and a 0.1-ms square wave pulse. We performed three tetanic measurements on each muscle, with 1 min recovery between each measurement. Data were collected with the Aurora Scientific Dynamic Muscle Data Acquisition and Analysis Software.
(§4) We performed all experiments and protocols in compliance with the institutional guidelines of Stanford University and Administrative Panel on Laboratory Animal Care (APLAC). Middle aged (18-20 mo.) and aged (>24 mo.) mice C57BL/6 were obtained the US National Institute on Aging (NIA) for aged muscle studies, and young (2-4 mo.) wild-type C57BL/6 mice from Jackson Laboratory. INK-ATTAC mice were generated as previously described (1). INK-ATTAC healthspan assessments. INK-ATTAC mice were crossed onto the C57BL6/J genetic background and maintained in specific-pathogen free housing on a 12-hour dark/light cycle for study duration. At 12 months of age, male mice were either utilized for baseline healthspan assessments and terminal muscle harvest or randomized to receive twice-weekly vehicle or AP20187 (2 mg/kg intraperitoneal injection; B/B homodimerizer, Clontech) until assessment and sacrifice at 28 months of age (2). […] Time and distance to exhaustion was performed as previously described (4) for SW-treated mice and their controls. […]
as §3, with “described (21, 22).” for “described (8,9).”, “percutaneously and” for “percutaneously were inserted”, “a 0.1—ms” for “a 0.1-ms”

aged mice = test: as above; format: in vivo, mouse; details: aged (>24 mo) mice, daily i.p. 5 mg/kg, 1 month, 5 mg/kg
From the text: as §1, §2, §3, §4
as §3, with “described (21, 22).” for “described (8,9).”, “percutaneously and” for “percutaneously were inserted”, “a 0.1—ms” for “a 0.1-ms”

[2] = test system: bone marrow, colon, lung, and liver; details: cited from earlier work
myotubes = test: Differentiated (starved) cultured myotubes: Atrogin1 expression and diameter; format: cell-based, mouse; details: starved (24 hr) or non-starved myotubes; PGE2 10 ng/ml, SW 1 μM; listed as SW
Protocol: For myotubes we performed fixation using 4% PFA, blocking and permeabilization using PBS/1% BSA/0.1% Triton X-100 and staining with primary antibodies anti-MyHC (Thermo Fisher Scientific, catalog #14-6503-82, clone MF-20, 1:500) and then with AlexaFluor secondary Antibodies (Jackson ImmunoResearch Laboratories, 1:500). We counterstained nuclei with DAPI (Invitrogen).
Primary myoblasts were grown in myogenic cell culture medium containing DMEM/F10 (50:50), 15% FBS, 2.5 ng ml-1 fibroblast growth factor-2 and 1% penicillin-streptomycin. For differentiation experiments, confluent myoblasts were grown in medium containing 5% horse serum, DMEM. […] Myoblasts were isolated from EP4^fl/fl mice and received either a mCherry/Cre lentivirus or a mock infection as previously described (5).
For cultured myotubes we performed fixation using 4% PFA, blocking and permeabilization using PBS/1% BSA/0.1% Triton X-100 and staining with primary antibodies anti-MYH (Thermo Fisher Scientific, catalog #14-6503-82, clone MF-20, 1:500) and then with AlexaFluor secondary Antibodies (Jackson ImmunoResearch Laboratories, 1:500). We counterstained nuclei with DAPI (Invitrogen). We acquired images using the KEYENCE BZ-X700 all-in-one fluorescence microscope (Keyence) with 20x/0.75 N.A. objectives. We analyzed the fiber area using the Keyence Advanced Analysis Software. For fiber area the entire maximum cross-sectional area of the muscle was quantified or at least 10 fields of LAMININ or WGA stained myofiber cross-sections encompassing over 400 myofibers were captured for each mouse as above. For fiber typing analysis, the MATLAB application SMASH-Semi-Automatic Muscle Analysis Using Segmentation of Histology, was used as previously described (12). Data analyses were blinded. The researchers performing the imaging acquisition and scoring were unaware of treatment condition given to sample groups analyzed.
Primary murine myoblasts were grown in myogenic cell culture medium containing DMEM/F10 (50:50), 15% FBS, 2.5 ng ml^−1 fibroblast growth factor-2 and 1% penicillin-streptomycin. […] For differentiation experiments, confluent myoblasts were grown in medium containing 5% horse serum, DMEM.

For `CCCC[S+]([O-])c1sc2nc(-c3cccs3)cc(-c3ccccc3)c2c1N` (stereo not shown) [SW033291, 2-(butylsulfinyl)-4-phenyl-6-(thiophen-2-yl)thieno[2,3-b]pyridin-3-amine], the absolute strength [1] was “not statistically significant”, the muscle mass [1] was “not statistically significant” and the “endurance (time to exhaustion on a treadmill)” value (aged mice) was “increases; also recorded: significant increase”. The “muscle mass (weight of dissected GA, TA, soleus)” value (aged mice) was “increases; also recorded: significant increase”, the “muscle strength (plantar flexion tetanic force)” value (aged mice) was “increases; also recorded: significant increase” and the “endurance (time to exhaustion on a treadmill)” value (aged mice; listed as SW) was “increased”. The “muscle mass (weight of dissected GA, TA, soleus)” value (aged mice; listed as SW) was “significant increase”, the “muscle strength (plantar flexion tetanic force)” value (aged mice; listed as SW) was “significant increase” and the “increase of PGE2 levels in vivo” value [2] was 2 fold. The myotube diameter (myotubes) was “no increase; also recorded: no effect”.
